Results reported in the supplement of paper PMC10307832.

Assays:
Experiment in all cases: relative viability (nuclei count vs DMSO), 5 days (fraction); higher = more cells survive
Erlotinib + Palbociclib = compound: C#Cc1cccc(Nc2ncnc3cc(OCCOC)c(OCCOC)cc23)c1 [Erlotinib] + CC(=O)c1c(C)c2cnc(Nc3ccc(N4CCNCC4)cn3)nc2n(C2CCCC2)c1=O [Palbociclib] (partner 0.5 µM)
How it was run: (§1)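 Lung cancer cell lines in 1536-well plates got either a single drug or a fixed anchor-drug dose together with five library-drug doses (not always all listed) in √10 steps, by pin tool, on the day after seeding. Nuclei were counted after 5 days, and relative viability is the treated-to-vehicle ratio of nuclei counts. Values are medians of duplicate plates.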

Erlotinib + Lapatinib = compound: C#Cc1cccc(Nc2ncnc3cc(OCCOC)c(OCCOC)cc23)c1 [Erlotinib] + CS(=O)(=O)CCNCc1ccc(-c2ccc3ncnc(Nc4ccc(OCc5cccc(F)c5)c(Cl)c4)c3c2)o1 [Lapatinib] (partner 2 µM)
How it was run: as §1

Erlotinib + Pictilisib = compound: C#Cc1cccc(Nc2ncnc3cc(OCCOC)c(OCCOC)cc23)c1 [Erlotinib] + CS(=O)(=O)N1CCN(Cc2cc3nc(-c4cccc5[nH]ncc45)nc(N4CCOCC4)c3s2)CC1 [Pictilisib] (partner 1 µM)
How it was run: as §1

Erlotinib + Olaparib = compound: C#Cc1cccc(Nc2ncnc3cc(OCCOC)c(OCCOC)cc23)c1 [Erlotinib] + O=C(c1cc(Cc2n[nH]c(=O)c3ccccc23)ccc1F)N1CCN(C(=O)C2CC2)CC1 [Olaparib] (partner 8 µM)
How it was run: as §1

AT9283 + Lapatinib = compound: O=C(Nc1c[nH]nc1-c1nc2ccc(CN3CCOCC3)cc2[nH]1)NC1CC1 [AT9283] + CS(=O)(=O)CCNCc1ccc(-c2ccc3ncnc(Nc4ccc(OCc5cccc(F)c5)c(Cl)c4)c3c2)o1 [Lapatinib] (partner 2 µM)
How it was run: as §1

LXF-289 was tested, and the relative viability (Erlotinib + Palbociclib; first compound 0.02 µM) was 0.583, the relative viability (Erlotinib + Palbociclib; first compound 0.2 µM) was 0.566 and the relative viability (Erlotinib + Palbociclib; first compound 0.6325 µM) was 0.531. The relative viability (Erlotinib + Palbociclib; first compound 2 µM) was 0.539, the relative viability (Erlotinib + Lapatinib; first compound 0.02 µM) was 0.89 and the relative viability (Erlotinib + Lapatinib; first compound 0.2 µM) was 0.953. The relative viability (Erlotinib + Lapatinib; first compound 0.6325 µM) was 0.899, the relative viability (Erlotinib + Lapatinib; first compound 2 µM) was 0.889 and the relative viability (Erlotinib + Pictilisib; first compound 0.02 µM) was 0.775. It also gave a relative viability (Erlotinib + Pictilisib; first compound 0.6325 µM) of 0.798, a relative viability (Erlotinib + Pictilisib; first compound 2 µM) of 0.704 and a relative viability (Erlotinib + Olaparib; first compound 0.02 µM) of 1.15. The relative viability (Erlotinib + Olaparib; first compound 0.2 µM) was 1.12, the relative viability (Erlotinib + Olaparib; first compound 0.6325 µM) was 1.12 and the relative viability (Erlotinib + Olaparib; first compound 2 µM) was 1.04. It also gave a relative viability (AT9283 + Lapatinib; first compound 0.003 µM) of 0.901, a relative viability (AT9283 + Lapatinib; first compound 0.03 µM) of 0.691 and a relative viability (AT9283 + Lapatinib; first compound 0.09487 µM) of 0.163. It also gave a relative viability (AT9283 + Lapatinib; first compound 0.3 µM) of 0.135.

NCI-H1993 showed a relative viability (Erlotinib + Palbociclib; first compound 0.02 µM) of 0.585, a relative viability (Erlotinib + Palbociclib; first compound 0.2 µM) of 0.561 and a relative viability (Erlotinib + Palbociclib; first compound 0.6325 µM) of 0.503. It also gave a relative viability (Erlotinib + Palbociclib; first compound 2 µM) of 0.514, a relative viability (Erlotinib + Lapatinib; first compound 0.02 µM) of 0.961 and a relative viability (Erlotinib + Lapatinib; first compound 0.2 µM) of 0.795. The relative viability (Erlotinib + Lapatinib; first compound 0.6325 µM) was 0.698, the relative viability (Erlotinib + Lapatinib; first compound 2 µM) was 0.827 and the relative viability (Erlotinib + Pictilisib; first compound 0.02 µM) was 0.807. The relative viability (Erlotinib + Pictilisib; first compound 0.2 µM) was 0.745, the relative viability (Erlotinib + Pictilisib; first compound 0.6325 µM) was 0.946 and the relative viability (Erlotinib + Pictilisib; first compound 2 µM) was 0.901. It also gave a relative viability (Erlotinib + Olaparib; first compound 0.02 µM) of 0.91, a relative viability (Erlotinib + Olaparib; first compound 0.2 µM) of 0.606 and a relative viability (Erlotinib + Olaparib; first compound 0.6325 µM) of 0.748. The relative viability (Erlotinib + Olaparib; first compound 2 µM) was 0.658, the relative viability (AT9283 + Lapatinib; first compound 0.003 µM) was 0.813 and the relative viability (AT9283 + Lapatinib; first compound 0.03 µM) was 0.672. For the same cell line, the relative viability (AT9283 + Lapatinib; first compound 0.09487 µM) was 0.631 and the relative viability (AT9283 + Lapatinib; first compound 0.3 µM) was 0.632.

For NCI-H23, the relative viability (Erlotinib + Palbociclib; first compound 0.02 µM) was 0.571, the relative viability (Erlotinib + Palbociclib; first compound 0.2 µM) was 0.447 and the relative viability (Erlotinib + Palbociclib; first compound 0.6325 µM) was 0.453. For the same cell line, the relative viability (Erlotinib + Palbociclib; first compound 2 µM) was 0.509, the relative viability (Erlotinib + Lapatinib; first compound 0.02 µM) was 1.29 and the relative viability (Erlotinib + Lapatinib; first compound 0.2 µM) was 0.993. It also gave a relative viability (Erlotinib + Lapatinib; first compound 0.6325 µM) of 1.27, a relative viability (Erlotinib + Lapatinib; first compound 2 µM) of 0.977 and a relative viability (Erlotinib + Pictilisib; first compound 0.02 µM) of 0.56. It also gave a relative viability (Erlotinib + Pictilisib; first compound 0.2 µM) of 0.517, a relative viability (Erlotinib + Pictilisib; first compound 0.6325 µM) of 0.61 and a relative viability (Erlotinib + Pictilisib; first compound 2 µM) of 0.464. For the same cell line, the relative viability (Erlotinib + Olaparib; first compound 0.02 µM) was 0.388, the relative viability (Erlotinib + Olaparib; first compound 0.2 µM) was 0.261 and the relative viability (Erlotinib + Olaparib; first compound 0.6325 µM) was 0.289. For the same cell line, the relative viability (Erlotinib + Olaparib; first compound 2 µM) was 0.294, the relative viability (AT9283 + Lapatinib; first compound 0.003 µM) was 0.968 and the relative viability (AT9283 + Lapatinib; first compound 0.03 µM) was 0.395. It also gave a relative viability (AT9283 + Lapatinib; first compound 0.09487 µM) of 0.225 and a relative viability (AT9283 + Lapatinib; first compound 0.3 µM) of 0.207.

NCI-H1650 was tested, and the relative viability (Erlotinib + Palbociclib; first compound 0.02 µM) was 0.265, the relative viability (Erlotinib + Palbociclib; first compound 0.2 µM) was 0.287 and the relative viability (Erlotinib + Palbociclib; first compound 0.6325 µM) was 0.309. For the same cell line, the relative viability (Erlotinib + Palbociclib; first compound 2 µM) was 0.245, the relative viability (Erlotinib + Lapatinib; first compound 0.02 µM) was 0.705 and the relative viability (Erlotinib + Lapatinib; first compound 0.2 µM) was 0.728. The relative viability (Erlotinib + Lapatinib; first compound 0.6325 µM) was 0.899, the relative viability (Erlotinib + Lapatinib; first compound 2 µM) was 0.828 and the relative viability (Erlotinib + Pictilisib; first compound 0.02 µM) was 0.483. For the same cell line, the relative viability (Erlotinib + Pictilisib; first compound 0.6325 µM) was 0.578, the relative viability (Erlotinib + Pictilisib; first compound 2 µM) was 0.47 and the relative viability (Erlotinib + Olaparib; first compound 0.02 µM) was 0.821. It also gave a relative viability (Erlotinib + Olaparib; first compound 0.2 µM) of 0.685, a relative viability (Erlotinib + Olaparib; first compound 0.6325 µM) of 0.61 and a relative viability (Erlotinib + Olaparib; first compound 2 µM) of 0.644. For the same cell line, the relative viability (AT9283 + Lapatinib; first compound 0.003 µM) was 0.697, the relative viability (AT9283 + Lapatinib; first compound 0.03 µM) was 0.287 and the relative viability (AT9283 + Lapatinib; first compound 0.09487 µM) was 0.225. For the same cell line, the relative viability (AT9283 + Lapatinib; first compound 0.3 µM) was 0.115.

SK-MES-1 gave a relative viability (Erlotinib + Palbociclib; first compound 0.02 µM) of 0.35, a relative viability (Erlotinib + Palbociclib; first compound 0.2 µM) of 0.257 and a relative viability (Erlotinib + Palbociclib; first compound 0.6325 µM) of 0.327. The relative viability (Erlotinib + Palbociclib; first compound 2 µM) was 0.293, the relative viability (Erlotinib + Lapatinib; first compound 0.02 µM) was 0.511 and the relative viability (Erlotinib + Lapatinib; first compound 0.2 µM) was 0.452. For the same cell line, the relative viability (Erlotinib + Lapatinib; first compound 0.6325 µM) was 0.476, the relative viability (Erlotinib + Lapatinib; first compound 2 µM) was 0.434 and the relative viability (Erlotinib + Pictilisib; first compound 0.02 µM) was 0.287. For the same cell line, the relative viability (Erlotinib + Pictilisib; first compound 0.2 µM) was 0.245, the relative viability (Erlotinib + Pictilisib; first compound 0.6325 µM) was 0.258 and the relative viability (Erlotinib + Pictilisib; first compound 2 µM) was 0.22. It also gave a relative viability (Erlotinib + Olaparib; first compound 0.02 µM) of 0.821, a relative viability (Erlotinib + Olaparib; first compound 0.2 µM) of 0.563 and a relative viability (Erlotinib + Olaparib; first compound 0.6325 µM) of 0.465. For the same cell line, the relative viability (Erlotinib + Olaparib; first compound 2 µM) was 0.346, the relative viability (AT9283 + Lapatinib; first compound 0.003 µM) was 0.427 and the relative viability (AT9283 + Lapatinib; first compound 0.03 µM) was 0.547. It also gave a relative viability (AT9283 + Lapatinib; first compound 0.09487 µM) of 0.349 and a relative viability (AT9283 + Lapatinib; first compound 0.3 µM) of 0.263.

NCI-H2023 gave a relative viability (Erlotinib + Palbociclib; first compound 0.02 µM) of 0.393, a relative viability (Erlotinib + Palbociclib; first compound 0.2 µM) of 0.351 and a relative viability (Erlotinib + Palbociclib; first compound 0.6325 µM) of 0.297. It also gave a relative viability (Erlotinib + Palbociclib; first compound 2 µM) of 0.225, a relative viability (Erlotinib + Lapatinib; first compound 0.02 µM) of 0.737 and a relative viability (Erlotinib + Lapatinib; first compound 0.2 µM) of 0.651. For the same cell line, the relative viability (Erlotinib + Lapatinib; first compound 0.6325 µM) was 0.965, the relative viability (Erlotinib + Pictilisib; first compound 0.02 µM) was 0.3 and the relative viability (Erlotinib + Pictilisib; first compound 0.6325 µM) was 0.218. It also gave a relative viability (Erlotinib + Pictilisib; first compound 2 µM) of 0.226, a relative viability (Erlotinib + Olaparib; first compound 0.02 µM) of 0.46 and a relative viability (Erlotinib + Olaparib; first compound 0.2 µM) of 0.43. It also gave a relative viability (Erlotinib + Olaparib; first compound 0.6325 µM) of 0.54, a relative viability (Erlotinib + Olaparib; first compound 2 µM) of 0.432 and a relative viability (AT9283 + Lapatinib; first compound 0.003 µM) of 0.778. The relative viability (AT9283 + Lapatinib; first compound 0.03 µM) was 0.133, the relative viability (AT9283 + Lapatinib; first compound 0.09487 µM) was 0.122 and the relative viability (AT9283 + Lapatinib; first compound 0.3 µM) was 0.0743.

CAL-12T showed a relative viability (Erlotinib + Palbociclib; first compound 0.02 µM) of 0.433, a relative viability (Erlotinib + Palbociclib; first compound 0.2 µM) of 0.125 and a relative viability (Erlotinib + Palbociclib; first compound 0.6325 µM) of 0.154. The relative viability (Erlotinib + Palbociclib; first compound 2 µM) was 0.146, the relative viability (Erlotinib + Lapatinib; first compound 0.02 µM) was 0.815 and the relative viability (Erlotinib + Lapatinib; first compound 0.2 µM) was 0.704. The relative viability (Erlotinib + Lapatinib; first compound 0.6325 µM) was 0.68, the relative viability (Erlotinib + Lapatinib; first compound 2 µM) was 0.543 and the relative viability (Erlotinib + Pictilisib; first compound 0.02 µM) was 0.277. For the same cell line, the relative viability (Erlotinib + Pictilisib; first compound 0.2 µM) was 0.388, the relative viability (Erlotinib + Pictilisib; first compound 0.6325 µM) was 0.419 and the relative viability (Erlotinib + Pictilisib; first compound 2 µM) was 0.274. The relative viability (Erlotinib + Olaparib; first compound 0.02 µM) was 0.742, the relative viability (Erlotinib + Olaparib; first compound 0.2 µM) was 0.674 and the relative viability (Erlotinib + Olaparib; first compound 0.6325 µM) was 0.488. It also gave a relative viability (Erlotinib + Olaparib; first compound 2 µM) of 0.474, a relative viability (AT9283 + Lapatinib; first compound 0.003 µM) of 0.587 and a relative viability (AT9283 + Lapatinib; first compound 0.03 µM) of 0.299. The relative viability (AT9283 + Lapatinib; first compound 0.09487 µM) was 0.23 and the relative viability (AT9283 + Lapatinib; first compound 0.3 µM) was 0.238.

Work on LCLC-97TM1 yielded a relative viability (Erlotinib + Palbociclib; first compound 0.02 µM) of 0.234, a relative viability (Erlotinib + Palbociclib; first compound 0.2 µM) of 0.243 and a relative viability (Erlotinib + Palbociclib; first compound 0.6325 µM) of 0.256. The relative viability (Erlotinib + Palbociclib; first compound 2 µM) was 0.194, the relative viability (Erlotinib + Lapatinib; first compound 0.02 µM) was 1.36 and the relative viability (Erlotinib + Lapatinib; first compound 0.6325 µM) was 0.929. It also gave a relative viability (Erlotinib + Lapatinib; first compound 2 µM) of 0.846, a relative viability (Erlotinib + Pictilisib; first compound 0.02 µM) of 0.171 and a relative viability (Erlotinib + Pictilisib; first compound 0.6325 µM) of 0.226. It also gave a relative viability (Erlotinib + Pictilisib; first compound 2 µM) of 0.211, a relative viability (Erlotinib + Olaparib; first compound 0.02 µM) of 0.45 and a relative viability (Erlotinib + Olaparib; first compound 0.2 µM) of 0.352. It also gave a relative viability (Erlotinib + Olaparib; first compound 0.6325 µM) of 0.508, a relative viability (Erlotinib + Olaparib; first compound 2 µM) of 0.321 and a relative viability (AT9283 + Lapatinib; first compound 0.003 µM) of 0.746. It also gave a relative viability (AT9283 + Lapatinib; first compound 0.03 µM) of 0.15, a relative viability (AT9283 + Lapatinib; first compound 0.09487 µM) of 0.129 and a relative viability (AT9283 + Lapatinib; first compound 0.3 µM) of 0.126.
